Earlier results on one compound are cited in patent US20060078541A1, “Method and formula for stem cells' stimulation, targeting release, trafficking and homing” (priority 2004, published 2006).

The conditions of this data set: in vivo.

For `[Cs+]` [Cesium ions], the assimilated was roughly 100%. For the setting “human”, the biological half life is recorded as 50-60 days.
